As a reminder, the pIC50 is the negative decadic logarithm of the IC50, by convention in mol/L.

Like-named read-outs stand apart in the source and are kept apart here.

Data set [1] addresses MET (Homo sapiens, UniProt P08581). Kind of data set: Split TEV recruitment assay, MET-NTEV-tcs-GV in PC12 cells. The following applies: SH2(GRB2)-CTEV adapter, constant HGF stimulus.
Description: (§1) Split TEV recruitment assays were run in six replicates per condition in 96-well plates. 50,000 PC12 cells per well were seeded onto poly-L-lysine (PLL)-coated plates. The next day, cells were transfected with assay plasmids using Lipofectamine 2000. For transfection-based assays, no antibiotics were added to the medium. Per 96-well, a receptor-NTEV-tcs-GV fusion plasmid (10 ng), an adapter-CTEV fusion plasmid for either SHC1 (10 ng), SH2(SHC1) (10 ng), SH2(GRB2) (10 ng), SH2(mix) (10 ng), PIK3R1(50 ng), SH2(PIK3R1) (50 ng), or GRB2 (2.5 ng), and an Fluc reporter plasmid (10 ng, Fluc driven by 10x clustered upstream activating sequences coupled to a minimal CMV promoter, 10 × UAS-minCMVp) were used. […] 16 h later (day 4), the medium was removed, and cells were lysed using Passive Lysis Buffer (Promega) and luciferase activity was analysed using a dual luciferase assay (Promega) in a Mithras LB 940 Multimode Microplate Reader (Berthold Technologies). […] Error bars are calculated as standard error of the mean (SEM).
(§2) For split TEV recruitment assays in a dose–response format, the following amendments to the general protocol were made. […] Error bars are calculated as standard error of the mean (SEM).
Data set [2] concerns the target IGF1R (Homo sapiens, UniProt P08069). Kind of data set: Split TEV recruitment assay, IGF1R-NTEV-tcs-GV in PC12 cells. As to conditions: SH2(GRB2)-CTEV adapter, constant IGF1 stimulus.
Description: as §1, §2
Data set [3] has as its system PC12 cells. Kind of data set: Constitutive Renilla luciferase readout to assess toxic effects. Format: cell-based. The following applies: split TEV dose-response assays. How it is done: For split TEV recruitment assays in a dose–response format, the following amendments to the general protocol were made. For a dose–response assay, all cells on the plate were transfected with the same receptor-NTEV-tcs-GV and adapter-CTEV fusions, the Fluc reporter plasmid, 1 ng of a plasmid constitutively expressing Renilla luciferase driven by a thymidine kinase promoter, and the EYFPnuc expressing plasmid. Renilla luciferase was used to assess toxic effects when applying compounds. For dose-dependent stimulation testing activation, six wells per condition were stimulated using increasing concentrations of an agonist at a semi-logarithmic scale. For assays testing inhibition, cells were treated with increasing concentrations of an antagonist at a semi-logarithmic scale, followed 1 h later by the addition of an agonist at a constant concentration. […] Dose–response data were analysed using the R-based ‘drc’ package, as described before. Error bars are calculated as standard error of the mean (SEM). For ease of presentation and intuition, we have transformed conventionally used IC50 values into pIC50 values. These are calculated from IC50 values using the formula pIC50 = − log10(IC50), with units of molar for IC50 and therefore log(molar) for pIC50.

For data set [4], the system named is EGFR. As to conditions: Biochemical, AID 1204628; cited from earlier work.
Data set [5] deals with EGFR. As to conditions: Western blotting, cellular lysates, AID 770081; cited from earlier work. In general terms: A western blot detects proteins with antibodies after separation by electrophoresis.
The target of data set [6] is ERBB2. As to conditions: Biochemical, AID 1204629; cited from earlier work.
Data set [7] relates to ERBB4. The following applies: Biochemical, AID 1204629; cited from earlier work.
In data set [8] the target is ERBB3. The following applies: Biochemical, AID 1204629; cited from earlier work.
Data set [9] deals with EGFR (Homo sapiens, UniProt P00533). Put plainly: Split TEV recruitment assay, EGFR-NTEV-tcs-GV in PC12 cells. The following applies: SH2(GRB2)-CTEV adapter, constant EGF.
Chain of EGFR (Homo sapiens, UniProt P00533) (P00533 25-1210): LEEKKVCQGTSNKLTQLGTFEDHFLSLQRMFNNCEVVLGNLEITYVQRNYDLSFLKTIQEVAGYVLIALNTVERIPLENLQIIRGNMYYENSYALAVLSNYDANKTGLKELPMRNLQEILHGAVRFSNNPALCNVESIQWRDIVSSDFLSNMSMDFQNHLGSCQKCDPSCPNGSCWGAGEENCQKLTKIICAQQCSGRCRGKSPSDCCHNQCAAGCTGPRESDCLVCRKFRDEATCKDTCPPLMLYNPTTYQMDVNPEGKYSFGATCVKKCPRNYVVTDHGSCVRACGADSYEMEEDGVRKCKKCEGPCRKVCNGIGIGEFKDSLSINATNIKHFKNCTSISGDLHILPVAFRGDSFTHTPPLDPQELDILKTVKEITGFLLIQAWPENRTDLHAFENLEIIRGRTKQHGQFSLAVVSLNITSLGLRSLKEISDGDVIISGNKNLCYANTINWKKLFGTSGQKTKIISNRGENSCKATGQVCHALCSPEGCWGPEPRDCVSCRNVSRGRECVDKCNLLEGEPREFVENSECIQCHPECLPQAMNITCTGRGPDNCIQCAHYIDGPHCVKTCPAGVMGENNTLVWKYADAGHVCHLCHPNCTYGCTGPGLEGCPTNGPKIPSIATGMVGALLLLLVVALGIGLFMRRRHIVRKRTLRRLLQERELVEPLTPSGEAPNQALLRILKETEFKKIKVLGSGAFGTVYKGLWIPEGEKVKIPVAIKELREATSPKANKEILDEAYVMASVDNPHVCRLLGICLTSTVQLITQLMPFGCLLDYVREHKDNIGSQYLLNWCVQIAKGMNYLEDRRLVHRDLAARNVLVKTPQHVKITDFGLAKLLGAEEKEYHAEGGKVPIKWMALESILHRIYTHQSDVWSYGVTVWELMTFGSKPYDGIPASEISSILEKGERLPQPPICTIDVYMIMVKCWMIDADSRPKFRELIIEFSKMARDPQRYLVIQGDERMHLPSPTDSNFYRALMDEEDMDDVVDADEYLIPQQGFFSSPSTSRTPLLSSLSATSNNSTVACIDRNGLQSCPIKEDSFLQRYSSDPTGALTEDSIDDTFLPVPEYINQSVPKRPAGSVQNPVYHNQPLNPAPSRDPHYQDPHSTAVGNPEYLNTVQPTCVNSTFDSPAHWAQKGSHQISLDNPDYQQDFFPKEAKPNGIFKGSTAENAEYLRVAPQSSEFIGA
Description: as §1, §2
For data set [10], the target named is ERBB4 (Homo sapiens, UniProt Q15303). Kind of data set: Split TEV recruitment assay, ERBB4-NTEV-tcs-GV in PC12 cells. As to conditions: for Antagonistic effect on ERBB4 activity: SH2(GRB2)-CTEV adapter, PC12 cells, constant EGFld.
Chain of ERBB4 (Homo sapiens, UniProt Q15303) (Q15303 26-1308): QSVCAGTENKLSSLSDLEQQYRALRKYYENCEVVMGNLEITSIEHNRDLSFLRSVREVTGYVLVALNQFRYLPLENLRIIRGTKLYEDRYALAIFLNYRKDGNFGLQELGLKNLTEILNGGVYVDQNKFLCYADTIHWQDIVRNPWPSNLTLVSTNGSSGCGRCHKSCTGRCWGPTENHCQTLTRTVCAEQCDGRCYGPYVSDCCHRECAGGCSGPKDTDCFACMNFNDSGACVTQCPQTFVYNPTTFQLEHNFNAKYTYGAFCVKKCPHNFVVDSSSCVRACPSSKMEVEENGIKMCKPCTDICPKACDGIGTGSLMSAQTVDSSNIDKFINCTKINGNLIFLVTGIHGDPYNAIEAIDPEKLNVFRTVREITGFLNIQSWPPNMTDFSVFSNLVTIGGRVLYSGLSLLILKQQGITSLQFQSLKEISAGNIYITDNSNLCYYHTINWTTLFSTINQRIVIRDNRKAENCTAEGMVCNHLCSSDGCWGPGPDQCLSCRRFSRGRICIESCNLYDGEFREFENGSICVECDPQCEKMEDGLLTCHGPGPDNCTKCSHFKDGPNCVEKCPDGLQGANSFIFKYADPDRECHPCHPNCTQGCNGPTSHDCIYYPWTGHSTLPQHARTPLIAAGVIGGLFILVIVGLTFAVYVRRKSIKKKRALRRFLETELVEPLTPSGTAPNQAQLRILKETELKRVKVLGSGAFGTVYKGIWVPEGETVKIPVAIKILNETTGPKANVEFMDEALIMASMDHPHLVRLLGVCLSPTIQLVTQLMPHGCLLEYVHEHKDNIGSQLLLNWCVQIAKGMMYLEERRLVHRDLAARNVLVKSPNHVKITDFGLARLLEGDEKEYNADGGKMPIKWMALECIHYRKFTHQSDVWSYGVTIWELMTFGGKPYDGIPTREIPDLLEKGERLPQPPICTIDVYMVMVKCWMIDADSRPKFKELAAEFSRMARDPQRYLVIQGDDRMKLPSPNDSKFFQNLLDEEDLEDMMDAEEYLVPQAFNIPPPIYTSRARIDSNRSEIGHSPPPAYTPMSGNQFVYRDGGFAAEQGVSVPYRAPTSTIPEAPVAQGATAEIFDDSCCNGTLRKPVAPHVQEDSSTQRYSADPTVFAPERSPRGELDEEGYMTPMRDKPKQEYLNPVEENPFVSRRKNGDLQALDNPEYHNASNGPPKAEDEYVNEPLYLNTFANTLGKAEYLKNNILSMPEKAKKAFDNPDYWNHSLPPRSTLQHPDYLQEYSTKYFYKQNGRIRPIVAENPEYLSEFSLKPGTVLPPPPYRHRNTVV
Description: Split TEV recruitment assays were run in six replicates per condition in 96-well plates. 50,000 PC12 cells per well were seeded onto poly-L-lysine (PLL)-coated plates. The next day, cells were transfected with assay plasmids using Lipofectamine 2000. For transfection-based assays, no antibiotics were added to the medium. Per 96-well, a receptor-NTEV-tcs-GV fusion plasmid (10 ng), an adapter-CTEV fusion plasmid for either SHC1 (10 ng), SH2(SHC1) (10 ng), SH2(GRB2) (10 ng), SH2(mix) (10 ng), PIK3R1(50 ng), SH2(PIK3R1) (50 ng), or GRB2 (2.5 ng), and an Fluc reporter plasmid (10 ng, Fluc driven by 10x clustered upstream activating sequences coupled to a minimal CMV promoter, 10 × UAS-minCMVp) were used. Additionally, 1 ng of a plasmid constitutively expressing an EYFP that is fused to nuclear localisation sequence (EYFPnuc) driven by a CMV promoter was transfected per 96-well to assess transfection efficiencies (EYFPnuc). In detail, assay plasmids were diluted in 30 µl Opti-MEM (Thermo Fisher Scientific), vortexed, and mixed with 0.2 µl Lipofectamine 2000 per well. The DNA/Lipofectamine/Opti-MEM mix was incubated for 20 min. The medium was removed from the wells and the DNA/Lipofectamine/Opti-MEM mix was added onto the cells. After 2 h of incubation, the maintenance medium without antibiotics was added to the Opti-MEM mix. On day 2, the maintenance medium was replaced by starvation medium. […] 16 h later (day 4), the medium was removed, and cells were lysed using Passive Lysis Buffer (Promega) and luciferase activity was analysed using a dual luciferase assay (Promega) in a Mithras LB 940 Multimode Microplate Reader (Berthold Technologies). […] Error bars are calculated as standard error of the mean (SEM).
as §2
For data set [11], the target named is ERBB2/ERBB3 (Homo sapiens, UniProt P04626+P21860). Put plainly: Split TEV recruitment assay, ERBB3-NTEV-tcs-GV with co-transfected ERBB2 in PC12 cells. As to conditions: SH2(GRB2)-CTEV adapter, constant EGFld.
Chain of ERBB2/ERBB3 (P21860 20-1342): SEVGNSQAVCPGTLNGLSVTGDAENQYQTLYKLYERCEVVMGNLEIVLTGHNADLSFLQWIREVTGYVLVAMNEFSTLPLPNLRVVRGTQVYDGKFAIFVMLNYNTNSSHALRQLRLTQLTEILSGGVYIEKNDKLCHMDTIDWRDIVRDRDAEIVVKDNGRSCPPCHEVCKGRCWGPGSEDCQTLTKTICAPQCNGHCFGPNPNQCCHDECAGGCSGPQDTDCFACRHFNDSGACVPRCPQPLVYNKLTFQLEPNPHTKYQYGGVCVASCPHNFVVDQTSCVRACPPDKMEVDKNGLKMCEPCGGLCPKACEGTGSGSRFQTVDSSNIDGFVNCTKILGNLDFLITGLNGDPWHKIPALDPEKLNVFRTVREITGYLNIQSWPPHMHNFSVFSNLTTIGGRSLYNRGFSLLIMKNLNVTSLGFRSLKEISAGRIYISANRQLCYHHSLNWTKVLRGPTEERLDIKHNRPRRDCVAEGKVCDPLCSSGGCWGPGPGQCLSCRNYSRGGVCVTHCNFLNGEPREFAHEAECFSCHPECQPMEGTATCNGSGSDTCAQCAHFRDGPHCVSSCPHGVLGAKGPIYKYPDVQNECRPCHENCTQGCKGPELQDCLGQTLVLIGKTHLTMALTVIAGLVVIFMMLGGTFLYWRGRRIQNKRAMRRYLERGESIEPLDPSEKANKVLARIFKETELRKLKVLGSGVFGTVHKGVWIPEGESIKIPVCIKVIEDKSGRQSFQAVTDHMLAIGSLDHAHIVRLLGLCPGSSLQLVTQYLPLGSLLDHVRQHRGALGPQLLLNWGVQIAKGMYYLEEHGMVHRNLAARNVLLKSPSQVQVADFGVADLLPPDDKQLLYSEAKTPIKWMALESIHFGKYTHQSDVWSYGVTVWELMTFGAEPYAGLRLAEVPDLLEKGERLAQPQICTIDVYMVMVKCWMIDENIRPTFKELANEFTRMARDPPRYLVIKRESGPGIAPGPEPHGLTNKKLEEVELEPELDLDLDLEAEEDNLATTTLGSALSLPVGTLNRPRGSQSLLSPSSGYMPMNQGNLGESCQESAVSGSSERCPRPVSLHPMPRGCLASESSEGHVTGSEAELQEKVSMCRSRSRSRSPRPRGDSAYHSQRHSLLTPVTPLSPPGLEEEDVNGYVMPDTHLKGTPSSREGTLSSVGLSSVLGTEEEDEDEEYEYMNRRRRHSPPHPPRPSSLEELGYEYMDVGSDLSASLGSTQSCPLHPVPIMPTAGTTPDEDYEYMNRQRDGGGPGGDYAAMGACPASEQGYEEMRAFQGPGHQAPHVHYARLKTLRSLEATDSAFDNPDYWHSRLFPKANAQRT
Chain of ERBB2/ERBB3 (P04626 23-1255): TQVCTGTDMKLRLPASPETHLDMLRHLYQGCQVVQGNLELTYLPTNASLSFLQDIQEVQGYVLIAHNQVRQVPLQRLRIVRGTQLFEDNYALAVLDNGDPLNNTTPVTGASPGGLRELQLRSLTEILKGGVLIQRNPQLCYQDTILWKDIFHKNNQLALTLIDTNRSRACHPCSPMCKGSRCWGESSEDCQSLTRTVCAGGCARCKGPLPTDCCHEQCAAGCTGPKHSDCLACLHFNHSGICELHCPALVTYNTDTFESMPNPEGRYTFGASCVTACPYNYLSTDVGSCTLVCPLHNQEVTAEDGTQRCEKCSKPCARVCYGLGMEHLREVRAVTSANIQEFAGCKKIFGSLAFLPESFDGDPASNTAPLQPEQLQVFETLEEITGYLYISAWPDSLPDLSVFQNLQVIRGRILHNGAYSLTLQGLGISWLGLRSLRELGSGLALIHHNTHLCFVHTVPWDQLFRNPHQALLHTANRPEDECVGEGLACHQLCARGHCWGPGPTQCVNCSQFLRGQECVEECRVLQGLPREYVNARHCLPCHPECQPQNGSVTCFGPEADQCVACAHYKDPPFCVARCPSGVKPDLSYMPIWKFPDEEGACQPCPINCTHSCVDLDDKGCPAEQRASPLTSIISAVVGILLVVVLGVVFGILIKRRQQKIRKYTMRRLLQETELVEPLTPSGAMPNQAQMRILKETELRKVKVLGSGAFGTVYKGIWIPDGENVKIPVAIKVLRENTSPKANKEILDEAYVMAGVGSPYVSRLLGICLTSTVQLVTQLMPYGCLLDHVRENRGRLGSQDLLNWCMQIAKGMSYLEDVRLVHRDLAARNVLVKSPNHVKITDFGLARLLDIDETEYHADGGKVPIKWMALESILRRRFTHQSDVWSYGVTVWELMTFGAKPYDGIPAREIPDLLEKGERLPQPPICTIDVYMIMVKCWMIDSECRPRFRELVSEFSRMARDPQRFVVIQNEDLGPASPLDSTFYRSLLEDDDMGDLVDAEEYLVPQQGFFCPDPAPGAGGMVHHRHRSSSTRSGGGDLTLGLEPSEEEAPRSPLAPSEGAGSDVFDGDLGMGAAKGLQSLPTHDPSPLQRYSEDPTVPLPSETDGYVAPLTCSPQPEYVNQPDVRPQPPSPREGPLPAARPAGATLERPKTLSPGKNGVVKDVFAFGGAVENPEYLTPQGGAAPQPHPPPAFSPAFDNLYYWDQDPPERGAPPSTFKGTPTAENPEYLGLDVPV
Description: as §1, §2
In data set [12] the test system is ERBB4. More on the design: method as in PMID 28743784. As to conditions: split TEV dimerisation assay; cited from earlier work.

For `CS(=O)(=O)CCNCc1ccc(-c2ccc3ncnc(Nc4ccc(OCc5cccc(F)c5)c(Cl)c4)c3c2)o1` [Lapatinib, lapatinib], the “Inhibition of MET activity” value in data set [1] is “did not inhibit”. In addition, the “Inhibition of IGF1R activity” value in data set [2] is reported as “did not inhibit”. In addition, the “Concentration at which toxic effects occur (constitutive Renilla luciferase readout)” value (from here on “Concentration”) in [3] worked out at 30 µM.
`COc1cc2c(Oc3ccc(NC(=O)C4(C(=O)Nc5ccc(F)cc5)CC4)cc3F)ccnc2cc1OCCCN1CCOCC1` [foretinib]: the “Concentration” value in [3] is on record as 30 µM.
Turning to `C=CC(=O)Nc1cccc(Oc2nc(Nc3ccc(N4CCN(C)CC4)cc3OC)ncc2Cl)c1` [WZ4002], the pIC50 in data set [4] was 7.79; in data set [5], 5.93; in data set [6], 9.37; in data set [7], 9.37; in data set [8], 9.37. The “IC50 (nM)/KD” value in data set [6] and in [8] was 0.42 nM in each case.
Take `C[C@]1(O)C[C@@H](c2nc(-c3ccc4ccc(-c5ccccc5)nc4c3)c3c(N)nccn32)C1` [linsitinib]: the “Inhibition of IGF1R activity” value in data set [2] is recorded as “efficiently inhibited”. In addition, in [3], the “Concentration” value worked out at 30 µM.
For the molecule `C[C@]12CCC(=O)C=C1C=C[C@@H]1[C@@H]2CC[C@@]2(C)[C@H]1CC[C@@]21CCC(=O)O1` [canrenone], the “Antagonistic effect on EGFR activity” value in data set [9] was “did not exhibit any antagonistic effects”. Further, the “Antagonistic effect on ERBB4 activity” value in data set [10] is recorded as “did not exhibit any antagonistic effects”. For the same molecule, in data set [11], the “Antagonistic effect on ERBB2/ERBB3 activity” value is recorded as “did not exhibit any antagonistic effects”.
`CC(=O)S[C@@H]1CC2=CC(=O)CC[C@]2(C)[C@H]2CC[C@@]3(C)[C@@H](CC[C@@]34CCC(=O)O4)[C@H]12` [Spironolactone, spironolactone]: in data set [9], the “Antagonistic effect on EGFR activity” value is “inhibited”. In addition, in [10], the “Antagonistic effect on ERBB4 activity” value is “inhibited”. Also, the “Selectivity among ERBB receptors” value is “some selectivity for ERBB4 over EGFR” in data set [10] (split TEV recruitment assays, SH2(GRB2) adapter) and “selectivity for ERBB4 over EGFR” in [12]. Moreover, the “Antagonistic effect on ERBB2/ERBB3 activity” value in [11] is given as “inhibited”.
